Where two headings read alike, the source gives them in different places. Marks after values point to notes of the source that are not given here.
Key:
[1] = Phase 2 study of Compound A or anastrozole in early ER+/HER2− breast cancer: adverse events; settings: TEAE, Treatment Related per title; Compound A 200 mg N = 23, Anastrozole 1 mg N = 13
[2] = human, in vivo
clinical = settings: human, in vivo
ER = biological target: T1, ER (Homo sapiens, UniProt P03372); assay: ER degradation in ER+ cell lines (MCF7); type: cell-based; set-up: endogenous in cells; host or cells: MCF7 (and a panel of unnamed ER+ cell lines)
T1 sequence (P03372 1-595): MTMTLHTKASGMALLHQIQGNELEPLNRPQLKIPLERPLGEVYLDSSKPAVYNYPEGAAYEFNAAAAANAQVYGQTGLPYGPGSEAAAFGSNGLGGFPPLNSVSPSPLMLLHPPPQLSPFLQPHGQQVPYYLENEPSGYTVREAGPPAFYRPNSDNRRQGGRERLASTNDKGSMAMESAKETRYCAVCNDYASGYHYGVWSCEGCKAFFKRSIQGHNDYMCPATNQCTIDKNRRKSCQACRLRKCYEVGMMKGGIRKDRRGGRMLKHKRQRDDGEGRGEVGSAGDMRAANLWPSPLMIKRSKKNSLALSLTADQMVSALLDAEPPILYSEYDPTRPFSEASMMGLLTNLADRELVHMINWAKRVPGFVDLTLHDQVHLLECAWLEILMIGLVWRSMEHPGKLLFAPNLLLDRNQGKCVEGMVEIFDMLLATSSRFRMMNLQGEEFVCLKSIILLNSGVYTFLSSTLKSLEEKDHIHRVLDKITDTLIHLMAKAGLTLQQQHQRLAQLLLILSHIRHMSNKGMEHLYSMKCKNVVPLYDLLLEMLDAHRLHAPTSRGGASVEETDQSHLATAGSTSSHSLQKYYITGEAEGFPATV

[3] = Interconversion (epimerization) Compound A/Compound B in animals; type: in vivo, mouse, rat, dog, and monkey
hERG channel = hERG channel (Homo sapiens, UniProt Q12809); assay: hERG channel inhibition; type: biochemical
Procedure: The pivotal nonclinical safety studies were conducted in the US in accordance with GLP regulations per the US 21 CFR Part 58. These include the cardiovascular safety pharmacology study in dogs, the pivotal 28-day and 3-month repeat-dose toxicology studies in rats and dogs, and an in vitro phototoxicity assay. The bacterial reverse mutation assay, in vitro micronucleus assay, and 2 in vitro hERG studies were conducted in the UK in accordance with the UK Good Laboratory Practice Monitoring Authority, MHRA: Good Laboratory Practice Regulations 1999, Statutory Instrument 1999 No. 3106 as amended by the Good Laboratory Practice (Codification Amendments Etc.) Regulations, 2004, Statutory Instrument 2004, No. 994; and the OECD GLP and OECD Principles on Good Laboratory Practice ENV/MC/CHEM (98) 17 (Revised in 1997, Issued January 1998).accordance with the OECD Principles of Good Laboratory Practice and as accepted by Regulatory Authorities throughout the European Union, United States of America (FDA), Japan (MHLW), and other countries that are signatories to the OECD Mutual Acceptance of Data Agreement.

T47D cells = assay: Live-cell imaging proliferation, T47D; type: cell-based; settings: Homo sapiens, 144 h, up to 6 days
Source text: (§1) Full growth of the cells over this time period is shown by extent of cell confluence with dimethyl sulfoxide (DMSO).

MCF7 cells = assay: Live-cell imaging proliferation, MCF7; type: cell-based; settings: Homo sapiens, 144 h; MCF7, up to 6 days
Source text: as §1

Chain of hERG channel (Q12809 whole entry): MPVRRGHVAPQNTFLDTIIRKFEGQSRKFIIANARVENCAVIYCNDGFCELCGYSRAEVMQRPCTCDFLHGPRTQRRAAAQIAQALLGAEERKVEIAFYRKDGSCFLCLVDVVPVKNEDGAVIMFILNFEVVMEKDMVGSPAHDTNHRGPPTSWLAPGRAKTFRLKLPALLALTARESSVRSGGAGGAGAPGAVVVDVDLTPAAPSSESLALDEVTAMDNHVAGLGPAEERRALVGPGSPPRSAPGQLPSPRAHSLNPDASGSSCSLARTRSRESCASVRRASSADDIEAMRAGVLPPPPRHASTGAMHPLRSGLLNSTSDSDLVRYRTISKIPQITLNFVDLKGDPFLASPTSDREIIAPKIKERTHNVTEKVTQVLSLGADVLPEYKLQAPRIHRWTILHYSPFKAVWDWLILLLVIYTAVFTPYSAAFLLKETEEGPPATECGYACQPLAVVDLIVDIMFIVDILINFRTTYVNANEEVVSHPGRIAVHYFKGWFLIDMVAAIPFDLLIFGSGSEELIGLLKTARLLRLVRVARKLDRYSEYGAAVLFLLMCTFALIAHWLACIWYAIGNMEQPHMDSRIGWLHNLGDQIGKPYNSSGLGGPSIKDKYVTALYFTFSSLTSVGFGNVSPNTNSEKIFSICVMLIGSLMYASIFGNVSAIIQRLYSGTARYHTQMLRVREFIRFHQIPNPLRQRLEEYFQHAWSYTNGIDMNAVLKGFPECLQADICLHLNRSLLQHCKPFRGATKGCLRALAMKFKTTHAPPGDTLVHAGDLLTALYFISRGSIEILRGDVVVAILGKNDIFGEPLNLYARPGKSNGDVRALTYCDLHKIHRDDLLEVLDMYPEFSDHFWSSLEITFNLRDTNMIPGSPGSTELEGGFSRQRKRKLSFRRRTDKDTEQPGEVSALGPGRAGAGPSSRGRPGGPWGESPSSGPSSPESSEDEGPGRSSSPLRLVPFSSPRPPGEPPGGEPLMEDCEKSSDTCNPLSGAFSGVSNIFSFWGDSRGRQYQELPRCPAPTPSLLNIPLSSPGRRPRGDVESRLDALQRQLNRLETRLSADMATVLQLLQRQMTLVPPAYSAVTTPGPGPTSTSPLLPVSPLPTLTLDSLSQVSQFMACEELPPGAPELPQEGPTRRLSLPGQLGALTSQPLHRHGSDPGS

For `CC(C)(C#N)c1cc(Cn2cncn2)cc(C(C)(C)C#N)c1` [Anastrozole], the Anemia [1] was 1 (7.7) n (%), the Arthralgia [1] was 1 (7.7) n (%) and the Asphyxia [1] was 0 n (%). The Asthenia [1] was 0 n (%), the “Blood and lymphatic system disorders” value [1] was 1 (7.7) n (%) and the “Blood uric acid increased” value [1] was 0 n (%). The Breast pain [1] was 0 n (%), the Cardiac disorders [1] was 0 n (%) and the Constipation [1] was 1 (7.7) n (%). The Diarrhea [1] was 0 n (%), the Dyspepsia [1] was 1 (7.7) n (%) and the Fatigue [1] was 0 n (%). For the same molecule, the Gastrointestinal disorders [1] was 1 (7.7) n (%), the “General disorders and administration site conditions” value [1] was 0 n (%) and the Hematocrit decreased [1] was 1 (7.7) n (%). The Heparin-induced thrombocytopenia [1] was 0 n (%), the Hepatobiliary disorders [1] was 0 n (%) and the Hot flush [1] was 0 n (%). The Hyperbilirubinemia [1] was 0 n (%), the Hypercalcemia [1] was 0 n (%) and the Hyperglycemia [1] was 0 n (%). The Hypernatremia [1] was 0 n (%), the Hypertransaminasemia [1] was 0 n (%) and the Hypokalemia [1] was 0 n (%). The Hyponatremia [1] was 0 n (%), the “Injury, poisoning and procedural complications” value [1] was 0 n (%) and the Insomnia [1] was 0 n (%). The Investigations [1] was 1 (7.7) n (%), the Lymphopenia [1] was 1 (7.7) n (%) and the “Metabolism and nutrition disorders” value [1] was 0 n (%). For the same molecule, the “Musculoskeletal and connective tissue disorders” value [1] was 1 (7.7) n (%), the Myalgia [1] was 1 (7.7) n (%) and the Nervous system disorders [1] was 0 n (%). For the same molecule, the Odynophagia [1] was 0 n (%), the Procedural pain [1] was 0 n (%) and the Pruritus [1] was 0 n (%). For the same molecule, the Psychiatric disorders [1] was 0 n (%), the Pyrexia [1] was 0 n (%) and the “Reproductive system and breast disorders” value [1] was 0 n (%). The “Respiratory, thoracic and mediastinal disorders” value [1] was 0 n (%), the Sinus bradycardia [1] was 0 n (%) and the “Skin and subcutaneous tissue disorders” value [1] was 0 n (%). The Somnolence [1] was 0 n (%), the Stomatitis [1] was 0 n (%) and the Tension [1] was 0 n (%). For the same molecule, the Vascular disorders [1] was 0 n (%) and the “With Any Adverse Event” value [1] was 2 (15.4) n (%).
With `O=C1CC[C@@H](N2Cc3cc(N4CCN(CC5CCN(c6ccc([C@@H]7c8ccc(O)cc8CC[C@@H]7c7ccccc7)cc6)CC5)CC4)ccc3C2=O)C(=O)N1` [Compound B] the “Rac (AUCtau)” value ([2]; 30 mg) was 7.1, the Tmax ([2]; 30 mg) was 6.0 h and the “Rac (AUCtau)” value ([2]; 60 mg) was 7.3. For the same molecule, the “Rac (AUCtau)” value ([2]; 100 mg) was 6.1 ^f, the Tmax ([2]; 100 mg) was 6.0 h and the “Rac (AUCtau)” value ([2]; 120 mg) was 5.7. For the same molecule, the Tmax ([2]; 120 mg) was 6.0 h, the “Rac (AUCtau)” value ([2]; 180 mg) was 6.8 and the Tmax ([2]; 180 mg) was 5.9 h. The “Rac (AUCtau)” value ([2]; 200 mg) was 5.1, the Tmax ([2]; 200 mg) was 5.9 h and the “MR AUCtau” value ([2]; 250 mg) was 0.36. For the same molecule, the Tmax ([2]; 250 mg) was 4.1 h, the “Rac (AUCtau)” value ([2]; 360 mg) was 5.9 and the Tmax ([2]; 360 mg) was 6.0 h. The “Rac (AUCtau)” value ([2]; 500 mg) was 5.9, the Tmax ([2]; 500 mg) was 6.0 h and the “Rac (AUCtau)” value ([2]; 700 mg) was 3.7 ^g. For the same molecule, the Tmax ([2]; 700 mg) was 7.8 ^g h, the half-life (clinical; 30 mg) was 104 h and the Tmax (clinical; 30 mg) was 8 h. For the same molecule, the half-life (clinical; 60 mg) was 110 h, the half-life (clinical; 100 mg) was 99 h and the Tmax (clinical; 100 mg) was 7.8 h. For the same molecule, the half-life (clinical; 120 mg) was 93 h, the Tmax (clinical; 120 mg) was 7.8 h and the half-life (clinical; 180 mg) was 92 h. For the same molecule, the Tmax (clinical; 180 mg) was 7.8 h, the half-life (clinical; 200 mg) was 85 h and the Tmax (clinical; 200 mg) was 7.8 h. It also gave an AUC(0-t) (clinical; 250 mg, AUCtau (AUC0-8)) of 179 ng·h/mL, an AUC(0-t) (clinical; 250 mg, AUCtau (AUC0-12)) of 7390 ng·h/mL and a Tmax (clinical; 250 mg) of 7.8 h. It also gave a half-life (clinical; 360 mg) of 96 h, a Tmax (clinical; 360 mg) of 7.8 h and a half-life (clinical; 500 mg) of 96 h. For the same molecule, the Tmax (clinical; 500 mg) was 7.8 h, the half-life (clinical; 700 mg) was 52 h and the Tmax (clinical; 700 mg) was 7.8 h. The Tmax (clinical) was 7.8 h, the ER degradation (ER) was “does not degrade the ER” and the extent of epimerization ([3]; monkey) was “negligible”. The “exposure of Compound B compared to Compound A” value ([3]; preclinical data) was less than 26%, the IC50 (hERG channel) was greater than 20000 nM and the “unbound Cmax margin to hERG IC50” value (hERG channel; recommended Phase 3 dose of 200 mg) was roughly 499 ×.
Molecule `C[C@]12CC[C@@H]3c4ccc(O)cc4C[C@@H](CCCCCCCCC[S+]([O-])CCCC(F)(F)C(F)(F)F)[C@H]3[C@@H]1CC[C@@H]2O` (stereo partly shown) [fulvestrant, reference compound] has a GI50 (T47D cells) of 0.8 nM and a GI50 (MCF7 cells) of 0.4 nM.

— patent US20260069588A1, “VEPDEGESTRANT FOR USE IN TREATING CANCER” (Arvinas Operation, Inc., priority 2022, published 2026)
